Measurements reported in patent US7323166B2, “Lactic acid bacteria cultures that inhibit food-borne pathogens” (Board of Regents University of Nebraska, priority 2002, dated 2008).

System: cattle isolates
Assay: Test of antibiotic resistance in cattle isolates towards various antibiotics (share of isolates per category)
Format: cell-based, lactic acid bacteria (LAB)
Details: share of the 19 cattle isolates
Text: The following are examples of types of drugs that would be included in the three categories: Category I: quinolones, vancomycin, dalfopristin/quinupristin, third generation cephalosporins; Category II: ampicillin, first and second generation cephalosporins, erythromycin, trimethoprim/sulfamethoxazole; and Category III: inophores (monensin) and polymixins (Polymixin B and colistin). […] A commercial antimicrobial susceptibility test kit-Etest (AB Biodisk, North America Inc., Piscatway, N.J.) was used to determine the minimum inhibitory concentrations (MIC) of the antibiotics for the isolates selected. Etest strips containing a predefined exponential gradient of a particular antibiotic were applied to agar plates containing Mueller Hinton Agar (Difco) pre-inoculated with an overnight culture of the given bacteria (inoculum of 0.5 McFarland turbidity in 0.85% NaCl). The agar plates with the strips were immediately incubated at 37° C. for 16-20 hours, when bacterial growth became distinctly visible. After incubation, MIC values (μg/ml) were read where the inhibition ellipse (centered along the strip) intersected the scale at the edge of the strip. The susceptibility categorization of organisms towards a specific antibiotic was provided in the Etest antibiotic supplements for each agent and was used to examine the susceptibility of lactic acid bacteria (LAB) isolates. Based on the categorization, MIC for a particular organism was reported as susceptible (S), intermediate (I), or resistant (R). When growth occurred along the entire strip, i.e. no inhibition ellipse was seen, the MIC was reported as greater than (>H) the highest value on the reading scale.

Compound	% Intermediate [%]	% Resistant [%]	% Susceptible [%]
CC1(C)S[C@@H]2[C@H](NC(=O)[C@H](N)c3ccccc3)C(=O)N2[C@H]1C(=O)O [AM, Ampicillin]	0.0	10.0	90.0
CC[C@H]1OC(=O)[C@H](C)[C@@H](O[C@H]2C[C@@](C)(OC)[C@@H](O)[C@H](C)O2)[C@H](C)[C@@H](O[C@@H]2O[C@H](C)C[C@H](N(C)C)[C@H]2O)[C@](C)(O)C[C@@H](C)C(=O)[C@H](C)[C@@H](O)[C@]1(C)O [EM, Erythromycin]	5.0	21.0	74.0
Cc1c(F)c(N2CCNC(C)C2)cc2c1c(=O)c(C(=O)O)cn2C1CC1 (stereo not shown) [GP, Grepafloxacin]	10.0	58.0	32.0
C[C@H]1COc2c(N3CCN(C)CC3)c(F)cc3c(=O)c(C(=O)O)cn1c23 [LE, Levofloxacin]	37.0	5.0	58.0
CN(C)[C@@H]1C(O)=C(C(N)=O)C(=O)[C@@]2(O)C(O)=C3C(=O)c4c(O)cccc4[C@@](C)(O)[C@H]3C[C@@H]12 [TC, Tetracycline]	0.0	31.0	69.0

Same assay, conditions: share of the 19 cattle isolates; listed as grepafloxacin

Compound	% Resistant [%]
Cc1c(F)c(N2CCNC(C)C2)cc2c1c(=O)c(C(=O)O)cn2C1CC1 (stereo not shown) [GP, Grepafloxacin]	58
